Results reported in PMC10634346 (Cancer Research Communications, 2023).
Where two headings read alike, the source gives them in different places.

How the values were obtained:
[1] = test system: panel of 35 human lymphoma cell lines; assay: CellTiter-Glo cell viability, lymphoma cell line panel (OmniScreen); format: cell-based
Description: (§1) Human DLBCL cell lines SU-DHL-4 (#ACC 495) and SU-DHL-10 (#ACC 576) were obtained from DSMZ (German Collection of Microorganisms and Cell Cultures). The supplier used PCR-based DNA profiling of polymorphic short tandem repeats for authentication and Mycoplasma testing prior to shipment. Cells were cultured in suspension at 37°C in a humidified atmosphere containing 5% CO2. CDK9 inhibitors KB-0742 (MedChemExpress, #HY-137478A), enitociclib, and atuveciclib ([…] Pharma, Inc.) were used. A subset of 35 lymphoma cell lines is from a 500-cell line panel where the effect of enitociclib on cell viability using CellTiter-Glo luminescent cell viability was determined (OmniScreen, CrownBioscience). Genetic status and gene expression level for MYC and MCL1 was obtained from CrownBioscience.

SU-DHL-10 = assay: CellTiter-Glo cell viability, SU-DHL-10; format: cell-based; conditions: Homo sapiens, SU-DHL10
Description: as §1

[2] = test system: RNA polymerase II Ser2 phosphorylation (p-Ser2) in SU-DHL-4 cells; assay: In vitro washout, p-Ser2 Western blot, SU-DHL-4; format: cell-based, human; conditions: 4-hour treatment then washout
Description: (§2) Evaluation of the pharmacodynamic extent and duration of CDK9 inhibition were performed in vitro using the human DLBCL cell lines SU-DHL-4 and SU-DHL-10, harboring MYC amplification and MYC overexpression with P57T mutation, respectively. Cells were seeded 18 hours prior to treatment for 4 hours with one of three CDK9 inhibitors, enitociclib (0.25 and1 µmol/L), atuveciclib (1 µmol/L) or KB-0742 (1 µmol/L), cells were washed, and incubation continued until 48 hours posttreatment. Samples were collected before treatment (−4), immediately after treatment (0), and at 1, 2, 4, 8, 12, 16, 24, and 48 hours after washout for RNA sequencing (RNA-seq), qPCR, and Western blotting analyses.
(§3) The levels of p-Ser2, p-Ser5 and total RNA polymerase II, Myc, Mcl-1, cleaved PARP (cPARP), and cleaved Caspase 3 were assessed by Western blotting and quantified near-infrared detection and background corrected quantification of fluorescence intensity on an Odyssey Imaging System with IRDye secondary antibodies (LI-COR Biosciences). For quantification, the protein levels were normalized to GAPDH or HSP90, expressed as a ratio to DMSO or vehicle control at matched timepoints. The normalized relative protein levels of p-Ser2 were used for a treatment effect comparison by performing an ANOVA using PROC MIXED in SAS. The ANOVA model included treatment, timepoints and their interactions as fixed effects. The least square means (LSM), differences between the LSMs and associated P values were generated. The following primary antibodies were used: Rpb1 NTD (D8L4Y) rabbit antibody [Cell Signaling Technology (CST), #14958], anti-RNA polymerase II subunit B1 (phospho CTD Ser-2, clone 3E10) rat antibody (Merck, 04-1571-I), recombinant anti-c-MYC rabbit antibody (Y69; Abcam, #ab32072), MCL1 (D5V5L) rabbit antibody (CST, #39224), cleaved-PARP (Asp214) (E2T4K) mouse antibody (CST, #32563), HSP90 (C45G5) rabbit antibody (CST, #4877), and GAPDH mouse antibody (Zytomed Systems, #ZYT-RGM2-6C5).

[3] = test system: RNA polymerase II Ser2 phosphorylation (p-Ser2) in SU-DHL-10 cells; assay: In vitro washout, p-Ser2 Western blot, SU-DHL-10; format: cell-based, human; conditions: 1 µmol/L
Description: as §2, §3

[4] = test system: Myc and Mcl-1 protein in SU-DHL-10 cells; assay: In vitro washout, Myc and Mcl-1 protein Western blot, SU-DHL-10; format: cell-based, human; conditions: 1 µmol/L, 4 h treatment then washout
Description: as §2
(§4) The levels of p-Ser2, p-Ser5 and total RNA polymerase II, Myc, Mcl-1, cleaved PARP (cPARP), and cleaved Caspase 3 were assessed by Western blotting and quantified near-infrared detection and background corrected quantification of fluorescence intensity on an Odyssey Imaging System with IRDye secondary antibodies (LI-COR Biosciences). For quantification, the protein levels were normalized to GAPDH or HSP90, expressed as a ratio to DMSO or vehicle control at matched timepoints. The normalized relative protein levels of p-Ser2 were used for a treatment effect comparison by performing an ANOVA using PROC MIXED in SAS. The ANOVA model included treatment, timepoints and their interactions as fixed effects. […]

[5] = test system: Myc and Mcl-1 protein in SU-DHL-4 cells; assay: In vitro washout, Myc and Mcl-1 protein Western blot, SU-DHL-4; format: cell-based, human; conditions: 0.25 µmol/L enitociclib, atuveciclib (1 µmol/L)
Description: as §2, §4

[6] = test system: MYC mRNA in SU-DHL-10 tumors; assay: Pharmacodynamics in SU-DHL-10 xenograft tumors, MYC mRNA qPCR; format: in vivo, C.B-17 SCID mice; conditions: single dose 10 and 15 mg/kg
Description: Total RNA was extracted from blood of patients and cell lines using RNeasy Plus Mini Kit (QIAGEN, #74136) and cDNA prepared with the Maxima First Strand cDNA Synthesis Kit for RT-PCR (Thermo Fisher Scientific, K1642) according to manufacturer's instructions. The integrity of purified total RNA was evaluated using an Agilent 2100 Bioanalyzer system and RNA 6000 Nano Kit (Agilent, #5067-1511). Differential gene expression analysis was performed (Fios Genomics) from RNA-seq data (Discovery Life Sciences). MYC and MCL1 mRNA levels were measured by qPCR in vitro and in vivo, using a Taqman qPCR system (Thermo Fisher Scientific), TaqMan Fast Universal PCR Master Mix (2X) no AmpErase (#4352042) and TaqMan probes for MYC (Hs00153408_m1) and MCL1 (Hs03043899_m1). RNA-seq data were analyzed using DESeq2 ([35]).
A total of 10 × 10^6 SU-DHL-10 cells were inoculated subcutaneously into 6–8 weeks old female C.B-17 SCID mice (Iffa Credo, Brussels). The mice were randomized to treatment groups at a tumor volume of 63–104 mm^3 and treated (intravenously, once weekly) with 10 mg/kg enitociclib (60% PEG400, 10% ethanol, water), 15 mg/kg enitociclib (30% PEG400, 10% ethanol, water), or corresponding vehicle treatments. Mice were around 10–12 weeks of age at the start of study. All animal experiments were performed under the national animal welfare laws of Germany and approved by the local authorities.

[7] = Clinical pharmacokinetics, plasma LC/MS-MS (NCT02635672); format: in vivo, human; conditions: subject 3, dose lowered from 30 to 22.5 mg, not included in average

- IC50 (SU-DHL-10): 0.074 µM
- Tmax ([7]; human, plasma, intravenous, 22.5 mg, read-out: Multiple dose tmax): 29 min
- Multiple dose AUC0-t [7]: 1,670^b µg^ah/L
Structure (SMILES): COc1cc(F)ccc1-c1cc(Nc2cc(CS(C)(=N)=O)ccn2)ncc1F (stereo not shown) [enitociclib]
- IC50 ([1]; Homo sapiens, lymphoma cell lines, media fu = 66.6%, read-out: mean unbound IC50 for cytotoxicity): ~0.067 µM
- IC50 ([1]; range over panel of 35 human lymphoma cell lines, read-out: IC50 (cell cytotoxicity)): 0.043 to 0.152 µM
- decrease of p-Ser2 levels ([2]; 0.25 µmol/L): 50%
- duration of p-Ser2 decrease ([2]; 0.25 µmol/L): up to 48 hours
- duration of p-Ser2 decrease ([2]; 1 µmol/L): 48 h
- reduction of p-Ser2 ([3]; 4-hour treatment then washout): 50%
- duration of p-Ser2 reduction ([3]; after treatment): up to 24 hours
- duration of sustained Myc and Mcl-1 protein depletion [4]: 48 h
- sustained Myc and Mcl-1 protein depletion for 48 hours (in words) [5]: this was achieved
- MYC mRNA in tumors (in words) [6]: depleted by 4 hours postdose
